Legend:
[1] = test system: L929 cells; assay: TNF-α-mediated cytotoxicity in L929 cells; format: cell-based, murine; conditions: human TNF-α 300 pg/ml; FIG. 9
Description: An inventive compound can be assayed for activity protecting TNF-mediated cytotoxicity. In this assay, L929 murine fibroblast cells (10^4 cells per well) are incubated with either compounds at varying doses and media control for two hrs. […] The cells plus (or minus) drug plus TNF were incubated for 40 hrs at 37° C. The media is removed and replaced with fresh media containing 2% serum and 10 μg/ml of BCECF fluorescent dye and incubated for 30 min. The fluorescent dye-containing media is removed and replaced with PBS (phosphate buffered saline) and each well was assayed for fluorescence.
This assay is a model for septic shock. L929 cells (10^5) were treated with human TNF-α at 300 pg/ml in RPMI media containing 10% fetal calf serum with or without compound no. One day later, the cells were stained for viability using the fluorescent dye BCECF and fluorescence of the samples was analyzed using a Milipore plate reader.

[2] = test system: PAPH; assay: inhibition of PAPH / DAG formation in specific activation pathway; format: biochemical, human; conditions: specific activation pathway that does not involve PI
Description: The compounds and pharmaceutical compositions of the invention include inhibitors of subspecies of LPAAT and PAPH enzymes with substrate specificity for intermediates with 1,2-diunsaturated and 1-alkyl, 2-unsaturated subspecies. One representative example of such an inhibitor (although not within the genus of inventive compounds) is PTX. […] It should be emphasized that the compounds of the invention affect that subset of PAPH and LPAAT that relates to substrates with unsaturated fatty acids other than arachidonate in the sn-2 position, not the housekeeping forms of these enzymes that serve the PI pathway.
(§1) One in vitro assay measures inhibition of the relevant enzymes lysophosphatidic acid acyltransferase (LPAAT) and phosphatidic acid phosphoryl hydrolase (PAPH). […] It is important to note that the assay method permits discrimination between various forms of PA and DAG so that those relevant to the pathway affected by the (R) or (S) compounds of the invention can be measured directly. […] Thus, the relevant unsaturated (non-arachidonic) PA and DAG subspecies may be detected. […]

[3] = test system: LPAAT; assay: formation of remodeled PA at LPAAT; format: biochemical
Description: Even in the presence of PTX, cells continue to form PA through the action of PLD, and DAG is also formed through the action of phospholipase C on PC and PI. The latter pathway are not inhibited by the inventive compounds or PTX. In PTX-treated cells, DAG derived from remodeled and PLA-generated PA is diminished (e.g., 1,2-sn-dioleoyl DAG, 1-alkyl, 2-linoleoyl DAG and 1-alkyl, 2-docosahexaneolyl DAG). Therefore, the inventive compounds and PTX inhibit the formation of only a certain species of PA and DAG by selectively inhibiting a specific second messenger pathway that is only activated in cells by noxious stimuli, but is not used to signal normal cellular housekeeping functions.
as §1

[4] = test system: ras transformation in NIH/3T3 cells; assay: generation of DAG and PA in ras-transformed NIH/3T3 cells; format: cell-based; conditions: pretreatment of cells; 4-12 hours
Description: For example, activating ras mutations result in increased generation of DAG upon stimulation with mitogens, although the sources of DAG differ between experimental systems. In nontransformed renal mesangial cells, IL-1β stimulation increased PLA2 and LPAAT activation, resulting in generation of sn-2 unsaturated PA and subsequent hydrolysis to DAG by phosphatidate phosphohydrolase. The ras transformation in NIH/3T3 cells upregulates serum-stimulated generation of DAG and PA. Particular species of DAG that is stimulated by serum is dioleoyl and of PA are dilinoleoyl and dioleoyl. […] The inhibition occurs either through suppressing the generation of PA de novo from lysoPA, or through inhibition of one or both arms of the Lands cycle. […] Therefore, the ras transformation mediates an upregulation of PA through indirect stimulation of PLA2 and/or LPAAT activity.

[5] = test system: ras-transformed NIH/3T3 cells
[6] = test system: polymorphonuclear leukocytes; conditions: cited from earlier work
[7] = test system: tumor necrosis factor (TNF); conditions: normal volunteers; cited from earlier work

CC(=O)CCCCn1c(=O)c2c(ncn2C)n(C)c1=O [PTX, 1-(5-oxohexyl)-3,7-dimethylxanthine]
protection of L929 cells from TNF-induced cytotoxicity [1]: inhibited TNF-induced cytotoxicity in a dose dependent manner
blocking of PAPH [2]: blocks PAPH in a specific activation pathway
DAG derived from remodeled and PLA-generated PA ([3]; PTX-treated cells): diminished
formation of remodeled PA ([3]; in vitro, high PTX concentrations): blocks formation of remodeled PA through the PA/DAG pathway at high PTX concentrations
generation of phospholipid second messengers (DAG, PA) [4]: blocks generation of these phospholipid second messengers
inhibition of ras-transformed NIH/3T3 cells relative to parental cells [5]: inhibits ras-transformed NIH/3T3 cells more than parental cells
reversibility / cytotoxicity of inhibition [5]: reversible and is not associated with significant cytotoxicity
inhibition of cytokine activity to affect chemotaxis ([6]; U.S. Pat. Nos. 4,965,271 and 5,096,906): inhibit activity of certain cytokines to affect chemotaxis
stimulation of chemotaxis in polymorphonuclear leukocytes ([6]; in response to a stimulator of chemotaxis, U.S. Pat. No. 4,636,507): stimulate chemotaxis in polymorphonuclear leukocytes
TNF levels [7]: TNF levels were higher among PTX recipients
